Measured values from US20170275298A1, “INHIBITORS OF THE RENAL OUTER MEDULLARY POTASSIUM CHANNEL” (Merck Sharp & Dohme Corp., priority 2014, published 2017).

Target: T1, hROMK (hKir1.1) (Homo sapiens, UniProt P48048)
T1 construct: expressed in transfected cells
T1 sequence (P48048 1-391): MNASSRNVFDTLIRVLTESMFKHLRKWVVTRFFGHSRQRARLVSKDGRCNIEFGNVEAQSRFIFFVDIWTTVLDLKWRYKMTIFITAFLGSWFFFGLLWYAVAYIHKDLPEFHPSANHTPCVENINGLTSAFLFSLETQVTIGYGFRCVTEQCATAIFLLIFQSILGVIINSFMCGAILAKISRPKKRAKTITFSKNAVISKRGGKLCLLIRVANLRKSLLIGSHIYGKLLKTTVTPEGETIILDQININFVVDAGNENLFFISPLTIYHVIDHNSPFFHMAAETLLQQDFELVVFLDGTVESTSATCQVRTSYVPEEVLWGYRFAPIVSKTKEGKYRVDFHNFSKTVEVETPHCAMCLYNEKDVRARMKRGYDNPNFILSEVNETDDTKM
Assay: Thallium Flux Assay (ROMK channel functional thallium flux assay)
Format: cell-based
Conditions: HEK293 cells stably expressing hROMK (hKir1.1); FluxOR thallium flux, FLIPR-Tetra, 30 min compound incubation; read-out: ROMK TI IC50
How it was run: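 HEK293 cells stably expressing hROMK (hKir1.1) loaded with FluxOR dye 90 min at ambient temperature, then compound 30 min before thallium/potassium stimulant (final 3 mM Tl/0.3 mM K). ROMK-sensitive flux defined by 3 μM standard inhibitor; data as % fluorescence change.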

SMILES	IC50 [nM]
Cc1c([C@@H](O)CN2CCC3(CC2)CCN(c2cc(Cl)cnn2)CC3)ccc2c1COC2=O [Example 131, (R)-5-(2-(9-(5-chloropyridazin-3-yl)-3,9-diazaspiro[5.5]undecan-3-yl)-1-hydroxyethyl)-4-methylisobenzofuran-1(3H)-one]	23.8
Cc1c([C@@H](O)CN2CCC3(CC2)CCN(c2cnc(Cl)cn2)CC3)ccc2c1COC2=O [Example 132, (R)-5-(2-(9-(5-chloropyrazin-2-yl)-3,9-diazaspiro[5.5]undecan-3-yl)-1-hydroxyethyl)-4-methylisobenzofuran-1(3H)-one]	22.8
O[C@@H](CN1CCC2(CC1)CCN(c1cncc(Cl)n1)CC2)c1ccc(-n2cnnn2)nc1 [Example 134, (R)-1-(6-(1H-tetrazol-1-yl)pyridin-3-yl)-2-(9-(6-chloropyrazin-2-yl)-3,9-diazaspiro[5.5]undecan-3-yl)ethanol]	747
O[C@@H](CN1CCC2(CC1)CCN(c1cnc(Cl)cn1)CC2)c1ccc(-n2cnnn2)nc1 [Example 135, (R)-1-(6-(1H-tetrazol-1-yl)pyridin-3-yl)-2-(9-(5-chloropyrazin-2-yl)-3,9-diazaspiro[5.5]undecan-3-yl)ethanol]	875
O[C@@H](CN1CCC2(CC1)CCN(c1cc(Cl)cnn1)CC2)c1ccc(-n2cnnn2)nc1 [Example 138, (R)-1-(6-(1H-tetrazol-1-yl)pyridin-3-yl)-2-(9-(5-chloropyridazin-3-yl)-3,9-diazaspiro[5.5]undecan-3-yl)ethanol]	387
COC(=O)c1csc(N2CCC3(CCN(C[C@H](O)c4ccc5c(c4C)COC5=O)CC3)CC2)n1 [Example 140, (R)-methyl 2-(9-(2-hydroxy-2-(4-methyl-1-oxo-1,3-dihydroisobenzofuran-5-yl)ethyl)-3,9-diazaspiro[5.5]undecan-3-yl)thiazole-4-carboxylate]	364
COc1cnc(N2CCC3(CCN(C[C@H](O)c4ccc5c(c4C)COC5=O)CC3)CC2)cn1 [Example 141, (R)-5-(1-hydroxy-2-(9-(5-methoxypyrazin-2-yl)-3,9-diazaspiro[5.5]undecan-3-yl)ethyl)-4-methylisobenzofuran-1(3H)-one]	350

The remaining lines, values ahead:

IC50 [nM]	SMILES
274	Cc1c([C@@H](O)CN2CCC3(CC2)CCN(c2nccnc2Cl)CC3)ccc2c1COC2=O [Example 133, (R)-5-(2-(9-(3-chloropyrazin-2-yl)-3,9-diazaspiro[5.5]undecan-3-yl)-1-hydroxyethyl)-4-methylisobenzofuran-1(3H)-one]
330	Cc1c([C@@H](O)CN2CCC3(CC2)CCN(c2ncccn2)CC3)ccc2c1COC2=O [Example 136, (R)-5-(1-hydroxy-2-(9-(pyrimidin-2-yl)-3,9-diazaspiro[5.5]undecan-3-yl)ethyl)-4-methylisobenzofuran-1(3H)-one]
283	Cc1c([C@@H](O)CN2CCC3(CC2)CCN(c2nccs2)CC3)ccc2c1COC2=O [Example 137, (R)-5-(1-hydroxy-2-(9-(thiazol-2-yl)-3,9-diazaspiro[5.5]undecan-3-yl)ethyl)-4-methylisobenzofuran-1(3H)-one]
251	Cc1c([C@@H](O)CN2CCC3(CC2)CCN(c2cccnn2)CC3)ccc2c1COC2=O [Example 139, (R)-5-(1-hydroxy-2-(9-(pyridazin-3-yl)-3,9-diazaspiro[5.5]undecan-3-yl)ethyl)-4-methylisobenzofuran-1(3H)-one]
170	Cc1c([C@@H](O)CN2CCC3(CC2)CCN(c2ccnnc2)CC3)ccc2c1COC2=O [Example 142, (R)-5-(1-hydroxy-2-(9-(pyridazin-4-yl)-3,9-diazaspiro[5.5]undecan-3-yl)ethyl)-4-methylisobenzofuran-1(3H)-one]
